Three compounds from PMC6271077, “Synthesis, Anticancer and Antibacterial Activity of Salinomycin N-Benzyl Amides” (Molecules, 2014) can be followed below.

In assay [1] the test system is S. epidermidis ATCC 12228. Briefly: MIC microdilution. In kind it is cell-based. The settings on record: Staphylococcus epidermidis. (In general: Dilution methods test growth across graded concentrations, often in twofold steps.)
The test system of assay [2] is M. tuberculosis isoniazid-sensitive strain (spec. 192). Put plainly: Tuberculostatic activity, test-tube dilution. In kind it is cell-based. The following applies: Mycobacterium tuberculosis, read-out: MIC M. tuberculosis Isoniazid-Sensitive Strain.
A further assay relates to S. aureus ATCC 25923. Put plainly: MIC microdilution. The following applies: Staphylococcus aureus. It counts as cell-based.
The next assay concerns MRSE 468/11. Briefly: MIC microdilution, hospital MRSE. In kind it is cell-based. The settings on record: Staphylococcus epidermidis.
In another assay the test system is MRSA 537/12. Put plainly: MIC microdilution, hospital MRSA. In kind it is cell-based. The following applies: Staphylococcus aureus.
Another assay concerns MRSA 573/12. Put plainly: MIC microdilution, hospital MRSA. It counts as cell-based. The following applies: Staphylococcus aureus.
The next assay relates to HL-60. Briefly: Antiproliferative MTT assay, HL-60. It counts as cell-based, human. The settings on record: for IC50: Homo sapiens, read-out: IC50 HL-60; for SI HL-60: SI = IC50 BALB/3T3 / IC50 HL-60. In short, it runs like this: (§1)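 Leukemia cells seeded at 10^4 per well and exposed 24 h later to four concentrations (100–0.1 µg/mL) for 72 h; HL-60/vinc cultured with doxorubicin. MTT added 4 h, formazan lysed 24 h, absorbance 570 nm; IC50 from triplicates, ≥3 independent experiments.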
In general terms: Tetrazolium dyes change colour on reduction, which living cells bring about.

For a further assay, the system named is MRSE 461/11. Briefly: MIC microdilution, hospital MRSE. It counts as cell-based. The settings on record: Staphylococcus epidermidis.
Assay [3] concerns M. tuberculosis standard H37Rv strain. Put plainly: Tuberculostatic activity, test-tube dilution. It counts as cell-based. The following applies: Mycobacterium tuberculosis, read-out: MIC M. tuberculosis Standard H37Rv Strain.
Another assay deals with MRSA and MRSE. Put plainly: MIC microdilution, MRSA and MRSE overall (range given). It counts as cell-based. The settings on record: hospital MRSA and MRSE strains.
A further assay has as its system LoVo/dx. Put plainly: Antiproliferative SRB assay, LoVo/dx. In kind it is cell-based, human. The following applies: for IC50: Homo sapiens, LoVo/DX, 72 h, read-out: IC50 LoVo/dx; for IR LoVo/DX: IR = IC50 LoVo/dx / IC50 LoVo; for SI LoVo/DX: SI = IC50 BALB/3T3 / IC50 LoVo/dx. On the technique in general: In SRB staining, fixed cells bind dye roughly in proportion to their protein.

The subject of the next assay is HL-60/vinc. Put plainly: Antiproliferative MTT assay, HL-60/vinc. In kind it is cell-based, human. The following applies: for IC50: Homo sapiens, HL60/vinc, 72 h, read-out: IC50 HL-60/vinc; for IR HL-60/vinc: IR = IC50 HL-60/vinc / IC50 HL-60; for SI HL-60/vinc: SI = IC50 BALB/3T3 / IC50 HL-60/vinc. The essentials:
as §1

Another assay concerns MRSE 466/11. Briefly: MIC microdilution, hospital MRSE. In kind it is cell-based. The settings on record: Staphylococcus epidermidis.
The next assay concerns MRSA 585/12. Briefly: MIC microdilution, hospital MRSA. In kind it is cell-based. The following applies: Staphylococcus aureus.
For the next assay, the system named is MRSE 459/11. Briefly: MIC microdilution, hospital MRSE. In kind it is cell-based. The following applies: Staphylococcus epidermidis.
The next assay relates to LoVo. Put plainly: Antiproliferative SRB assay, LoVo. It counts as cell-based, human. The settings on record: for IC50: Homo sapiens, LoVo, 72 h, read-out: IC50 LoVo; for SI LoVo: SI = IC50 BALB/3T3 / IC50 LoVo.
Where [4] appears, read: ATCC12228, S. epidermidis ATCC 12228, 18 h, 35 °C, read-out: MIC.
Setting [5] is: ATCC25923, S. aureus ATCC 25923, 18 h, 35 °C, read-out: MIC.
Setting [6] is: hospital MRSE strain 468/11, read-out: MIC.
Setting [7] is: hospital MRSA strain 537/12, read-out: MIC.
The mark [8] stands for this setting: hospital MRSA strain 573/12, read-out: MIC.
The mark [9] stands for this setting: hospital MRSE strain 461/11, read-out: MIC.
Where [10] appears, read: hospital MRSE strain 466/11, read-out: MIC.
Setting [11] is: hospital MRSA strain 585/12, read-out: MIC.
Where [12] appears, read: hospital MRSE strain 459/11, read-out: MIC.

Converted amounts (≈) assume the structure as drawn. Where two headings read alike, the source gives them in different places.

Usually MIC stands for the lowest concentration that inhibits growth of the organism. `CC[C@H](C(=O)NCc1ccc(F)cc1)C1CC[C@H](C)C([C@@H](C)[C@H](O)[C@H](C)C(=O)[C@H](CC)C2O[C@]3(C=C[C@@H](O)C4(CC[C@@](C)(C5CC[C@](O)(CC)[C@H](C)O5)O4)O3)[C@H](C)C[C@@H]2C)O1` (stereo partly drawn) [F-p]: the MIC amounted to 16 µg/mL (≈ 18.6 µM) in assay [1] (setting [4]); 50 µg/mL (≈ 58.3 µM) in assay [2]; 32 µg/mL (≈ 37.3 µM) in the assay with S. aureus ATCC 25923 (setting [5]); 64 µg/mL (≈ 74.6 µM) with MRSE 468/11 (setting [6]); 32 µg/mL (≈ 37.3 µM) in the assay on MRSA 537/12 (setting [7]); 64 µg/mL (≈ 74.6 µM) with MRSA 573/12 (setting [8]). Besides, the MIC in the assay on MRSE 461/11 (setting [9]) came to 32 µg/mL (≈ 37.3 µM); in [3], 50 µg/mL (≈ 58.3 µM); in the assay with MRSE 466/11 (setting [10]) it was 16 µg/mL (≈ 18.6 µM); in the assay on MRSA 585/12 (setting [11]) it was 32 µg/mL (≈ 37.3 µM); with MRSE 459/11 (setting [12]), 32 µg/mL (≈ 37.3 µM). Moreover, the IC50 turned out to be 3.6 ± 0.69 µM in the assay on HL-60 (HL-60, 72 h, MTT, mean ± SD, NA: not active in concentrations used (up to 100 µg/mL)); 3.29 ± 0.91 µM with LoVo/dx; 11.8 ± 2.56 µM with HL-60/vinc; 6.18 ± 0.91 µM in the assay with LoVo (SRB, mean ± SD). Besides, the “SI HL-60” value in the assay on HL-60 was found to be 2.40. For the same compound, the “MIC (range over MRSA and MRSE)” value in the assay on MRSA and MRSE lay within 16 to 128 µg/mL. The “IR LoVo/DX” value in the assay on LoVo/dx is reported as 0.53. Moreover, the “SI LoVo/DX” value in the assay on LoVo/dx was 2.62. Further, the “IR HL-60/vinc” value with HL-60/vinc is 3.28. In addition, the “SI HL-60/vinc” value with HL-60/vinc was 0.73. The “SI LoVo” value in the assay on LoVo came to 1.40.

Turning to `CC[C@H](C(=O)NCc1ccc([N+](=O)[O-])cc1)C1CC[C@H](C)C([C@@H](C)[C@H](O)[C@H](C)C(=O)[C@H](CC)C2O[C@]3(C=C[C@@H](O)C4(CC[C@@](C)(C5CC[C@](O)(CC)[C@H](C)O5)O4)O3)[C@H](C)C[C@@H]2C)O1` (stereo partly drawn) [NO2-p], the MIC is 128 µg/mL (≈ 145 µM) in [1] (setting [4]); 50 µg/mL (≈ 56.5 µM) in [2]; 128 µg/mL (≈ 145 µM) with S. aureus ATCC 25923 (setting [5]); 128 µg/mL (≈ 145 µM) in the assay with MRSE 468/11 (setting [6]); 256 µg/mL (≈ 289 µM) in the assay on MRSA 537/12 (setting [7]); 256 µg/mL (≈ 289 µM) with MRSA 573/12 (setting [8]). Also, the MIC in the assay with MRSE 461/11 (setting [9]) worked out at 256 µg/mL (≈ 289 µM); in [3], 50 µg/mL (≈ 56.5 µM); with MRSE 466/11 (setting [10]) it was 256 µg/mL (≈ 289 µM); in the assay with MRSA 585/12 (setting [11]), 256 µg/mL (≈ 289 µM); in the assay on MRSE 459/11 (setting [12]), 128 µg/mL (≈ 145 µM). For the same compound, in the assay on MRSA and MRSE, the “MIC (range over MRSA and MRSE)” value lay within 128 to 256 µg/mL. Also, the IC50 in the assay on LoVo/dx turned out to be 20.4 ± 8.63 µM; with LoVo (SRB, mean ± SD), 13.3 ± 1.94 µM. Also, the “IR LoVo/DX” value with LoVo/dx is listed as 1.53. Further, the “SI LoVo/DX” value in the assay with LoVo/dx turned out to be 0.34. Also, the “SI LoVo” value with LoVo is recorded as 0.52.

Take `CC[C@@H](C(=O)[C@@H](C)[C@@H](O)[C@H](C)[C@@H]1O[C@@H]([C@@H](CC)C(=O)O)CC[C@@H]1C)[C@H]1O[C@]2(C=C[C@@H](O)[C@]3(CC[C@@](C)([C@H]4CC[C@](O)(CC)[C@H](C)O4)O3)O2)[C@H](C)C[C@@H]1C` [SAL, Salinomycin]: the MIC was determined as 2 µg/mL (≈ 2.66 µM) in assay [1] (ATCC12228, 18 h); 25 µg/mL (≈ 33.3 µM) in assay [2]; 2 µg/mL (≈ 2.66 µM) against S. aureus ATCC 25923 (ATCC25923, 18 h); 16 µg/mL (≈ 21.3 µM) against MRSE 468/11 (MRSE); 16 µg/mL (≈ 21.3 µM) against MRSA 537/12 (MRSA); 16 µg/mL (≈ 21.3 µM) with MRSA 573/12 (MRSA). Besides, the MIC worked out at 16 µg/mL (≈ 21.3 µM) against MRSE 461/11 (MRSE); 25 µg/mL (≈ 33.3 µM) in [3]; 8 µg/mL (≈ 10.7 µM) in the assay with MRSE 466/11 (MRSE); 16 µg/mL (≈ 21.3 µM) with MRSA 585/12 (MRSA); 16 µg/mL (≈ 21.3 µM) in the assay with MRSE 459/11 (MRSE). Also, the IC50 came to 0.33 ± 0.12 µM in the assay on HL-60 (HL-60, 72 h); 0.81 ± 0.32 µM with LoVo/dx; 2.33 ± 0.12 µM in the assay with HL-60/vinc; 0.47 ± 0.08 µM in the assay with LoVo. In the assay with HL-60, the “SI HL-60” value was 39.45. For the same compound, in the assay on LoVo/dx, the “IR LoVo/DX” value is 1.72. The “SI LoVo/DX” value in the assay on LoVo/dx came out at 16.07. Also, the “IR HL-60/vinc” value in the assay with HL-60/vinc amounted to 7.06. Besides, in the assay on HL-60/vinc, the “SI HL-60/vinc” value is listed as 5.59. The “SI LoVo” value with LoVo amounted to 27.70.
